ChEMBL document CHEMBL1201862, “PubChem BioAssay data set” (2004)
Active and inactive are the calls of the source.

Columns and labels:
[1] = target: T1, Eukaryotic translation initiation factor 2-alpha kinase 3 (Homo sapiens, UniProt Q9NZJ5); assay: Counterscreen assay for PERK inhibitors: Dose response cell-based high throughput screening assay to measure inhibition of PERK at 6 hours. [Related pubchem assays: 1522, 1416 ]; format: functional
[2] = target: T1, Eukaryotic translation initiation factor 2-alpha kinase 3; assay: Dose response cell-based high-throughput screening assay to measure PERK inhibition. [Related pubchem assays: 1416 ]; format: functional
cells = format: functional
[3] = target: Lysosomal acid glucosylceramidase (Homo sapiens, UniProt P04062); assay: Dose response cell-based high throughput screening assay to identify enhancers of beta-glucosidase activity. [Related pubchem assays: 784 ]; format: functional
Beta-galactosidase = Beta-galactosidase (Escherichia coli, UniProt Q8VNN2); assay: detection-enzyme interference by beta-gal modulators – biochemical, E. coli enzyme, set 3, artefact control for CCR6 antagonist project, dose response (AID 504712); format: functional
[4] = target: Eukaryotic translation initiation factor 4E (Mus musculus, UniProt P63073); assay: blockers of eIF4G binding by eIF4E – biochemical, TR-FRET, dose response (AID 855); format: functional;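 further: potency for disrupting eIF4E binding to eIF4GI seen as loss of FRET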
[5] = target: Induced myeloid leukemia cell differentiation protein Mcl-1 (Homo sapiens, UniProt Q07820); format: functional
[6] = target: C-C chemokine receptor type 6 (Homo sapiens, UniProt P51684); assay: antagonism of CCR6 beta-arrestin recruitment – cell-based, luminescent beta-arrestin readout, dose response (AID 504728); format: functional
Hexokinase HKDC1 = target: T2, Hexokinase HKDC1 (Homo sapiens, UniProt Q2TB90); assay: inhibition of HKDC1 glucose phosphorylation – biochemical, W721R variant, dose response (AID 504729); format: functional
T2 sequence (Q2TB90 whole entry): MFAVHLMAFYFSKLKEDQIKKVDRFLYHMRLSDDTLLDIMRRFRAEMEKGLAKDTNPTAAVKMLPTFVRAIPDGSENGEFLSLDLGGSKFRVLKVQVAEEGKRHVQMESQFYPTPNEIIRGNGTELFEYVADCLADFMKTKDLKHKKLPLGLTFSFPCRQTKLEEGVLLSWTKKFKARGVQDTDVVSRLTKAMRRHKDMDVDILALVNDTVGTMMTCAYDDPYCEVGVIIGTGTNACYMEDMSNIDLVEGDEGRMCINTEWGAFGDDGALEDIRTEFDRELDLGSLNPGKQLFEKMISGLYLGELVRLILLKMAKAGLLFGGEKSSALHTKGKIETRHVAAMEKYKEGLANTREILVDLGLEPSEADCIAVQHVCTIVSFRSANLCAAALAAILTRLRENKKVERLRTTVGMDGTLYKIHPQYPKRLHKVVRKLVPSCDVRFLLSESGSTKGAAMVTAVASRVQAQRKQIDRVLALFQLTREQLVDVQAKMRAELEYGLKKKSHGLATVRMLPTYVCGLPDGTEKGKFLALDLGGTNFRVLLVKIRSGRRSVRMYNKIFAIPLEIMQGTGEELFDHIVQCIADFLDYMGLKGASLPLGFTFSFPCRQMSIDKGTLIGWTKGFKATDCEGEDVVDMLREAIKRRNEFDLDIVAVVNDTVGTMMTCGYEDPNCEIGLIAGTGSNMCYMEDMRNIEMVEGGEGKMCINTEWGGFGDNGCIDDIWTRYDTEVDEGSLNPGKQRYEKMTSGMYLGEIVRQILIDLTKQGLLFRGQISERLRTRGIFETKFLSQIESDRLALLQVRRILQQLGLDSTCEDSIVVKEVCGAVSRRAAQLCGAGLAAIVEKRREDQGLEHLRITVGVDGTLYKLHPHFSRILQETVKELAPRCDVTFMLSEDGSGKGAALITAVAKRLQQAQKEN

Nonstructural protein 1 = Nonstructural protein 1 (Influenza A virus, UniProt Q194T2); format: functional, Influenza A virus (A/California/07/2009(H1N1))
[7] = target: Glucose-6-phosphate 1-dehydrogenase (Homo sapiens, UniProt P11413); assay: inhibition of Homo sapiens G6PD, dose series – biochemical, fluorescence, selectivity assay for P. falciparum G6PD inhibitor project, dose response (AID 504792); format: functional
[8] = target: Cystic fibrosis transmembrane conductance regulator/Golgi-associated PDZ and coiled-coil motif-containing protein (Homo sapiens, UniProt P13569+Q9HD26); assay: potency against CAL PDZ-peptide interaction – biochemical, fluorescence polarization, Cerulean-tagged CAL PDZ, cherry-picks, dose response (AID 504773)
[9] = HGIII-sPLA2 enzyme inhibition potency – biochemical, QFRET, IC50, dose response (AID 743457);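 further: green fluorescence rise as the enzyme cleaves BODIPY PC-A2 in liposomes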
[10] = target: Heat shock protein HSP 90-alpha (Homo sapiens, UniProt P07900); format: functional, organism-based
[11] = target: T3, Melanin-concentrating hormone receptor 1 (Homo sapiens, UniProt Q99705); assay: Fluorescence-based counterscreen for antagonists of the G-protein coupled receptor 7 (GPR7): cell-based high throughput dose response assay to identify antagonists of the melanin-concentrating hormone receptor 1 (MCHR1).; format: functional
Cytochrome P450 2D6 = Cytochrome P450 2D6 (Homo sapiens, UniProt P10635);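 further: CYP2D6 member of a cytochrome P450 panel assay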
[12] = HEK-293T cell viability reduction – luminescence, B-cell screen hits, cytotoxicity control for BCR NF-kB inhibitor project, dose response (AID 489021); format: functional, cell-based;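 further: HEK-293T cells carrying an NF-kB luciferase reporter; cells exposed to compound for about 14 hours before viability readout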
[13] = target: T4, Alkaline phosphatase, tissue-nonspecific isozyme (Homo sapiens, UniProt P05186)
T4 sequence (P05186 whole entry): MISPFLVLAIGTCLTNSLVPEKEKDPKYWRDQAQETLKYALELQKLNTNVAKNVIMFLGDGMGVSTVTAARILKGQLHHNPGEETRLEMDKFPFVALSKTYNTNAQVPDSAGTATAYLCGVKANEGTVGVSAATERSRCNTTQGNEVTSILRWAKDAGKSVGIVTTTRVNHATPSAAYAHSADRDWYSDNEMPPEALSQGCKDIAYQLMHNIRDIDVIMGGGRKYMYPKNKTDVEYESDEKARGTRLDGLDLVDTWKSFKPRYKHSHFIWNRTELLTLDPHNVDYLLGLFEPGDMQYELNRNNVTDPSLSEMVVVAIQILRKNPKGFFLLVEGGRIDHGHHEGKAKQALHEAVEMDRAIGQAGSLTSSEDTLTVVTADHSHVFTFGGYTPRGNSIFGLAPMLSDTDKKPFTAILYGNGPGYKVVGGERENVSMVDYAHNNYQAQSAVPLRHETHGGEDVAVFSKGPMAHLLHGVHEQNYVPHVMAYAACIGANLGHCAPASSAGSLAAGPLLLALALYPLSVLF

[14] = target: T5, DNA repair protein RAD52 homolog (Homo sapiens, UniProt P43351); format: functional, biochemical
T5 sequence (P43351 whole entry): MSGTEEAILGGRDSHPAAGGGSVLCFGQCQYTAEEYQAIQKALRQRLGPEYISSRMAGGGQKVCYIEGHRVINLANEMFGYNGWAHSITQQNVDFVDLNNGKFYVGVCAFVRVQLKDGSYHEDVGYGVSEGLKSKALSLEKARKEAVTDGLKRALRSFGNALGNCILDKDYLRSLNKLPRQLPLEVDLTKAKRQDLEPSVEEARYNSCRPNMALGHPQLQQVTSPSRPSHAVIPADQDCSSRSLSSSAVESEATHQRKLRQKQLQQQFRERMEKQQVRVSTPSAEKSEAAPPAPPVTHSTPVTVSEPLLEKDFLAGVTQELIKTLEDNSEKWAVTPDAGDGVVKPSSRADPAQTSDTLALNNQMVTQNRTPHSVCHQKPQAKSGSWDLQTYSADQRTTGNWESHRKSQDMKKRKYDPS

Bcl-2-like protein 10 = Bcl-2-like protein 10 (Homo sapiens, UniProt Q9HD36); assay: Bcl-B/TR3 peptide binding disruption – biochemical, fluorescence polarization, FITC-TR3 peptide, selectivity assay for Bfl-1 inhibitor project, primary screen (AID 748);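 further: fluorescence polarization from a fluorescein-labelled TR3 peptide binding purified Bcl-B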
Estrogen receptor beta = Estrogen receptor beta (Homo sapiens, UniProt Q92731);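 further: recombinant ER-beta bound to coactivator SRC1 peptide in presence of estradiol agonist; inhibitors block coactivator peptide binding and lower the FRET signal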
[15] = target: Acyl-homoserine lactone acylase PvdQ (Pseudomonas aeruginosa (strain LESB58), UniProt Q9I194); assay: PvdQ acylase enzyme activity blockers – biochemical, fluorescence, plate reader and imaging, cherry-picks, dose response (AID 493231)
X-box-binding protein 1 = X-box-binding protein 1 (Homo sapiens, UniProt P17861); format: functional, Cricetulus griseus;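 further: confirmatory dose-response counter-screen serving a CHOP assay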
[16] = target: Metabotropic glutamate receptor 4 (Rattus norvegicus, UniProt P31423); assay: Modulation of the Metabotropic Glutamate Receptor mGluR4: Rat PAM Potency. [Related pubchem assays (depositor defined):AID2437, AID2807]; format: functional
[17] = target: T3, Melanin-concentrating hormone receptor 1; assay: Late-stage fluorescence-based counterscreen for antagonists of the G-protein coupled receptor 7 (GPR7): cell-based dose response assay to identify antagonists of the melanin-concentrating hormone receptor 1 (MCHR1). [Related pubchem assays (depositor defined):AID1861, AID1880, AID1952, AID2148, AID2251, AID2257, AID485339]; format: functional
HEK293 = assay: Fluorescence-based counterscreen for potentiators or agonists of NPY-Y1: cell-based high-throughput dose response assay for inhibitors of cyclic nucleotide gated ion channel (CNGC) activity. In this assay, the parental HEK293 cell line transfected with a cyclic-nucleotide gated ion channel (CNGC)-based cAMP sensor is used to measure inhibition of isoproterenol-induced CNGC …; format: functional; conditions: Homo sapiens
[18] = target: Neuropeptide Y receptor type 2 (Homo sapiens, UniProt P49146); assay: Fluorescence-based counterscreen for agonists of NPY-Y1: cell-based high-throughput dose response assay for agonists of NPY-Y2.; format: functional
[19] = target: Neuropeptide Y receptor type 1 (Homo sapiens, UniProt P25929); assay: Fluorescence-based dose response cell-based high-throughput screening assay for agonists of NPY-Y1. [Related pubchem assays: 1697 (Screening assay (NPY-Y1 agonists).), 1359 (Screening assay (NPY-Y2 potentiators or agonists).), 1304 (Screening assay (NPY-Y1 potentiators or agonists).), 1704 (Screening assay (CNGC inhibitors).), 1791 (Summary AID.)]; format: functional

T1 sequence (Q9NZJ5 whole entry): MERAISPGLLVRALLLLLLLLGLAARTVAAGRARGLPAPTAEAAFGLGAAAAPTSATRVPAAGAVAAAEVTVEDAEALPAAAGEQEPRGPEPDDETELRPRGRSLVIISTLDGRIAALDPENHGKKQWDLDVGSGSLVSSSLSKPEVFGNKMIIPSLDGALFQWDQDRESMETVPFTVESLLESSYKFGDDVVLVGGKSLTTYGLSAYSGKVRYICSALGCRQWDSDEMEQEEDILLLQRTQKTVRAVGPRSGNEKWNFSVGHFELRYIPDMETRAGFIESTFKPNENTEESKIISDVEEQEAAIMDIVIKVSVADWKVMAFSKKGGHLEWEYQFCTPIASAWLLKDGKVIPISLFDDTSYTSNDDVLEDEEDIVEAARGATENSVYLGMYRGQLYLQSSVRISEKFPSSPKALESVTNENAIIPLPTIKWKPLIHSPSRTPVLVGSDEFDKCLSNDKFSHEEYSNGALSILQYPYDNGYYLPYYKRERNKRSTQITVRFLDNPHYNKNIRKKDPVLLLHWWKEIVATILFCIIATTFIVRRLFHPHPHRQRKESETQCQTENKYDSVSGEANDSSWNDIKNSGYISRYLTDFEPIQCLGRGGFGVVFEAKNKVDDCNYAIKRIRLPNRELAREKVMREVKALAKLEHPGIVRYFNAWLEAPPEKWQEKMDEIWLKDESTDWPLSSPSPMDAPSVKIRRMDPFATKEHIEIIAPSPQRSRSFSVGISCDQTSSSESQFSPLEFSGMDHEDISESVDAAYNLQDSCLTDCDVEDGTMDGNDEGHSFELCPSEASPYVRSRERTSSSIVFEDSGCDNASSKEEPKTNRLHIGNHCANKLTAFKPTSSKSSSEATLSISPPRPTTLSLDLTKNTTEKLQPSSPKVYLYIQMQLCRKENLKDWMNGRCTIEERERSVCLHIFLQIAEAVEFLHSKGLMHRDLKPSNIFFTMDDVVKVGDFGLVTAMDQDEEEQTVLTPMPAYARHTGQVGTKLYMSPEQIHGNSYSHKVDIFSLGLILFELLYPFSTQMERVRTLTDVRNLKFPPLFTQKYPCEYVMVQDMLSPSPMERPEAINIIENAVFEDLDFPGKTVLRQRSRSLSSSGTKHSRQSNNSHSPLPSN
T3 sequence (Q99705 whole entry): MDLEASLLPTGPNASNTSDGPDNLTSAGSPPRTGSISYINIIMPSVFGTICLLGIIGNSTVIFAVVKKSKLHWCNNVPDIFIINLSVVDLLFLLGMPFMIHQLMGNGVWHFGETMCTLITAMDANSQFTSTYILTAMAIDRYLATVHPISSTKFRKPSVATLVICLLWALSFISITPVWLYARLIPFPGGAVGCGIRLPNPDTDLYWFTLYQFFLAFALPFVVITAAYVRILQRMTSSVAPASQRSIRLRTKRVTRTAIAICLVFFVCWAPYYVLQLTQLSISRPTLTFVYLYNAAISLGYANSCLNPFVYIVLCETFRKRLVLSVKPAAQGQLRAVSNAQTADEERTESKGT
Nonstructural protein 1, sequence (Q194T2 whole entry): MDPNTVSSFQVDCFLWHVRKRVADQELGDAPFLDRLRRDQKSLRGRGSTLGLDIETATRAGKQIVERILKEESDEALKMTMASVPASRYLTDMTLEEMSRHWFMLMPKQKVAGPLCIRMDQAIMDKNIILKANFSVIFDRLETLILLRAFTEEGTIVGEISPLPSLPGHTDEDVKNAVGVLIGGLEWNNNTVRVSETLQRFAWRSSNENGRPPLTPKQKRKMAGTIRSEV
C-C chemokine receptor type 6, sequence (P51684 whole entry): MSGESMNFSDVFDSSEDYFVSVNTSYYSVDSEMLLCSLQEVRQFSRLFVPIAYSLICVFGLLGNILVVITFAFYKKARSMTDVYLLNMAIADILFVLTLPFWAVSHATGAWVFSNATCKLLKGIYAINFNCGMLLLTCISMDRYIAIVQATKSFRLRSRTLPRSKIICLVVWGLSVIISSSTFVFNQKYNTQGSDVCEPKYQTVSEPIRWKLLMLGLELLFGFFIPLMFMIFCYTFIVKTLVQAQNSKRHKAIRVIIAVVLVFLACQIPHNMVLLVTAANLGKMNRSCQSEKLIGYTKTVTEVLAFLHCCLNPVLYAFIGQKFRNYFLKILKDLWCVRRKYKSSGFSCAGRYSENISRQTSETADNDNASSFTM
Bcl-2-like protein 10, sequence (Q9HD36 whole entry): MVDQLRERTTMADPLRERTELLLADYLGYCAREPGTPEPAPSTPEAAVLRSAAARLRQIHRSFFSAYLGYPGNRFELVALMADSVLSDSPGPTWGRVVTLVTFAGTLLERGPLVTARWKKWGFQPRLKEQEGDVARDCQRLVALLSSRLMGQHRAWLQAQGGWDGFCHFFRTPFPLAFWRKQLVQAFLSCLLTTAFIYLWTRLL
Estrogen receptor beta, sequence (Q92731 whole entry): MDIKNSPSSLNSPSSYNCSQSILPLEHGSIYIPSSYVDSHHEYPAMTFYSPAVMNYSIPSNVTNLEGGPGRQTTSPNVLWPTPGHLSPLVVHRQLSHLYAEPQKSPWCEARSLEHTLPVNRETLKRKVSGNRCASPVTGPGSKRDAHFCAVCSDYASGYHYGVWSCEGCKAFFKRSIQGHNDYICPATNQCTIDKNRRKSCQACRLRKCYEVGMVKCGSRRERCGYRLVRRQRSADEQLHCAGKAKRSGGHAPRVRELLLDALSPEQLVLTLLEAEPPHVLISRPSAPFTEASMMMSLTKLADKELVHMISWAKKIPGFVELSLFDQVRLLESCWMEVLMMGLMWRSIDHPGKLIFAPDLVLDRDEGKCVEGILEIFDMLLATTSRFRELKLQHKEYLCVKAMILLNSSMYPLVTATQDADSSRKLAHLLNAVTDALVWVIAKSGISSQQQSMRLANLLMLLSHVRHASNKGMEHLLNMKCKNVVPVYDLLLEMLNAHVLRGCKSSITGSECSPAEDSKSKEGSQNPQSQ
Beta-galactosidase, sequence (Q8VNN2 whole entry): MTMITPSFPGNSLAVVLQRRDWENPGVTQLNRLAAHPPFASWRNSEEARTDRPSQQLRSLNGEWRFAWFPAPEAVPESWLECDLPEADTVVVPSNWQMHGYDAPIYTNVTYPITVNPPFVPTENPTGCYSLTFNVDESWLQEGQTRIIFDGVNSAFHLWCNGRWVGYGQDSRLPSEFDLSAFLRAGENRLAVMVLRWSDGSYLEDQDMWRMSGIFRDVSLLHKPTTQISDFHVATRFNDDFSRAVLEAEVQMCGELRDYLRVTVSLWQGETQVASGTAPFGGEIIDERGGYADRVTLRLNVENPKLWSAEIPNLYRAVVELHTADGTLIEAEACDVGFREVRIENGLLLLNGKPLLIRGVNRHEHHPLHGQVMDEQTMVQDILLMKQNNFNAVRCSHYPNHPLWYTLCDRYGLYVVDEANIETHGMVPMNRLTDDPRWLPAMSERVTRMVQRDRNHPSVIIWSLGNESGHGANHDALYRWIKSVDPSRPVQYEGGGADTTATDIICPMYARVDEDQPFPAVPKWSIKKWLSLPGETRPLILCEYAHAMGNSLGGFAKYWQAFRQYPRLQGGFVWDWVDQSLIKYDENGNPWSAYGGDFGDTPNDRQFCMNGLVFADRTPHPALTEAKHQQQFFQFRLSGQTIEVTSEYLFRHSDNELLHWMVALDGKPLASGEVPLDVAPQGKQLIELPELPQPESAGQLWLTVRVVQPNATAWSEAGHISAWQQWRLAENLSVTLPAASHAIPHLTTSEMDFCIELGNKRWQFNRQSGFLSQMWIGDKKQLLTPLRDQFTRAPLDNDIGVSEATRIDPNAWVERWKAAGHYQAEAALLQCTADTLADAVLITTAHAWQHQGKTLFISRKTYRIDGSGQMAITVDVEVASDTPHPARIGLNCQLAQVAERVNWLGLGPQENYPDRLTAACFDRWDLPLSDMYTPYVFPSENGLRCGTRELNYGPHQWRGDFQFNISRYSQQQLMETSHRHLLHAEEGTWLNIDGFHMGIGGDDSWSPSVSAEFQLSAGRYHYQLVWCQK
Eukaryotic translation initiation factor 4E, sequence (P63073 whole entry): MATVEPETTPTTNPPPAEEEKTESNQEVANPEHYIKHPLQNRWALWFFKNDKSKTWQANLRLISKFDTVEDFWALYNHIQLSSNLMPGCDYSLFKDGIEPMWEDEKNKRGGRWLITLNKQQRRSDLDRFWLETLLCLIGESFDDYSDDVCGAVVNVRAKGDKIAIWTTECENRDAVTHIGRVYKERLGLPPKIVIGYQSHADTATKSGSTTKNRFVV
Neuropeptide Y receptor type 2, sequence (P49146 whole entry): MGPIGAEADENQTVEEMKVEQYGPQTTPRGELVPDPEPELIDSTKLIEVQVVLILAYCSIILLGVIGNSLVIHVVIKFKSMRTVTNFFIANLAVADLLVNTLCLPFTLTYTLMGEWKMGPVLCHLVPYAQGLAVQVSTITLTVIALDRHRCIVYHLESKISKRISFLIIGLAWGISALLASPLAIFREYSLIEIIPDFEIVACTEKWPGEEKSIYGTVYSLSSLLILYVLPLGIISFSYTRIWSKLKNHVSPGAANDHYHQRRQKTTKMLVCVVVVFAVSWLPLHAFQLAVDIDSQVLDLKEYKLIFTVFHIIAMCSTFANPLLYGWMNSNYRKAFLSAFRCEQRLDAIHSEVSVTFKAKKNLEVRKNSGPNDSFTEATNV
X-box-binding protein 1, sequence (P17861 whole entry): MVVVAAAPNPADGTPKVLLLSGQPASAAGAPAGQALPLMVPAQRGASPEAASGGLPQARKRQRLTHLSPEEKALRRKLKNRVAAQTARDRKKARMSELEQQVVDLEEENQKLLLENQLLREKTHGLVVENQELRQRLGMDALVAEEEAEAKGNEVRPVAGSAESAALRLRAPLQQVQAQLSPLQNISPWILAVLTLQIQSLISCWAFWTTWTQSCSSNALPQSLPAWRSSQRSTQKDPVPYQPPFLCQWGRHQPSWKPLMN

Cc1ccc(C)c(OCC(=O)Nc2cc(C(=O)O)cc(C(=O)O)c2)c1
EC50 [1]: > 55.7 µM (not active) | EC50 [2]: > 55.7 µM (not active)

CCCCSc1nnc(-c2ccc(C)cc2)o1
IC50 (cells): 39 µM (active) | EC50 [3]: > 50 µM (not active)

COc1ccc(N2C(=O)/C(=C/C=C/c3ccccc3[N+](=O)[O-])C(=O)NC2=S)cc1
IC50 (Beta-galactosidase): > 66.6 µM (inactive) | IC50 [4]: 50 µM (inactive) | IC50 [5]: 0.73 µM (active) | IC50 [6]: > 66.6 µM (inactive)

CCOC(=O)c1ccc(NC(=O)CSc2n[nH]c(-c3ccncc3)n2)cc1
IC50 (Hexokinase HKDC1): 12.1 µM (active)

COc1ccc2c(c1)c(=Cc1ccc(N(C)C)cc1)c1cc(-c3ccccc3)[n+](C)n12
IC50 (Nonstructural protein 1): 4.56 µM (active) | IC50 [7]: 74.7 µM (inactive) | AC50 [8]: > 56 µM (inactive) | IC50 [9]: > 40.6 µM (inactive) | AC50 [10]: 3.93 µM (active)

CCC(C)CCN1C(Nc2ccccc2)=NC[C@@H]1Cc1ccccc1 (stereo partly drawn)
IC50 [11]: 12.5 µM (not active)

CCOc1ccc(-n2c(SCC(=O)Nc3ccc4c(c3)OCCO4)nc3c(c2=O)SCC3)cc1
AC50 (Cytochrome P450 2D6): 8.91 µM (inconclusive) | IC50 [12]: > 80 µM (inactive)

CN(C)CCCN(C(=O)c1ccco1)c1nc2ccc(Br)cc2s1
EC50 [13]: > 100 µM (not active) | AC50 [14]: 14.1 µM (active)

c1coc(-c2nn3c(-c4ccco4)nnc3s2)c1
IC50 (Bcl-2-like protein 10): 86.5 µM (inactive) | IC50 (Estrogen receptor beta): 24 µM (active)

OC(c1cccc(Cl)c1)c1nccc2ccccc12 (stereo not drawn)
AC50 [15]: 7.66 µM (active)

C/N=C1\SC(CC(=O)Nc2ccc(F)cc2F)C(=O)N1/N=C/c1ccc(OC(F)F)c(OC)c1 (stereo not drawn)
Absolute IC50 (XBP1) (X-box-binding protein 1): 10 µM

O=C(Nc1ccc(N2C(=O)CCC2=O)c(Cl)c1)c1ccccn1
EC50 [16]: 6.89 µM (active)

Cc1ccc(-n2ncc(Cl)c(OC3CCN(C(=O)OC(C)(C)C)CC3)c2=O)cc1
IC50 [17]: 5 µM (active)

COc1ccc(Nc2oc(/C=C3/SC(=S)N(CC4CCCO4)C3=O)nc2C#N)cc1 (stereo not drawn)
IC50 (HEK293): 11.8 µM (not active) | EC50 [18]: 12.8 µM (not active) | EC50 [19]: 13.5 µM (not active)
